Reference: patent publication US6022495A, “Photochromic benzopyrano-fused naphthopyrans” (Transitions Optical, Inc., priority 1998, dated 2000)

Columns and labels:
[1] = Visible lambda max of the activated form in polymer test squares (Varian Cary 3 UV-Visible spectrophotometer); format: physicochemical; conditions: activated (colored) form in test square of BPA 2EO DMA / poly(ethylene glycol) 600 dimethacrylate, 1.5×10^-3 molal
Method: (§1) Testing was done with the photochromic compounds prepared in Examples 1-11 in the following manner. A quantity of each photochromic compound calculated to yield a 1.5×10^-3 molal solution was added to a flask containing 50 grams of a monomer blend of 4 parts ethoxylated bisphenol A dimethacrylate (BPA 2EO DMA), 1 part poly(ethylene glycol) 600 dimethacrylate, and 0.033 weight percent 2,2'-azobis(2-methyl propionitrile) (AIBN). Each photochromic compound was dissolved into the monomer blend by stirring and gentle heating. After a clear solution was obtained, it was poured into a flat sheet mold having the interior dimensions of 2.2 mm×6 inches (15.24 cm)×6 inches (15.24 cm). The mold was sealed and placed in a horizontal air flow, programmable oven programmed to increase the temperature from 40° C. to 95° C. over […], hold the temperature at 95° C. for 3 hours, lower it to 60° C. over a 2 hour interval and then hold at 60° C. for 16 hours. After the mold was opened, the polymer sheet was cut using a diamond blade saw into 2 inch (5.1 centimeters) test squares.
The Δ OD/min, which represents the sensitivity of the photochromic compound's response to UV light, was measured over the first five (5) seconds of UV exposure, then expressed on a per minute basis. The saturation optical density (Δ OD@ Saturation) was taken under identical conditions as the Δ OD/min, except UV exposure was continued for 15 minutes. The lambda max (Vis) is the wavelength in nanometers (nm) in the visible spectrum at which the maximum absorption of the activated (colored) form of the photochromic compound in a test square occurs. The lambda max (Vis) wavelength was determined by testing the photochromic test square polymerizates of Part A in a Varian Cary 3 UV-Visible spectrophotometer. The Bleach Rate (T 1/2) is the time interval in seconds for the absorbance of the activated form of the photochromic compound in the test squares to reach one half the highest absorbance at room temperature (72° F., 22.20C.) after removal of the source of activating light.

[2] = Photochromic response of polymer test squares on an optical bench; format: physicochemical; conditions: for ΔOD @ Saturation: UV exposure continued for 15 minutes; for ΔOD @ Saturation / Sensitivity ΔOD/min: 72° F. (22.2° C.); for Sensitivity ΔOD/min: first five (5) seconds of UV exposure, expressed per minute
Method: as §1
The photochromic test squares prepared in Part A were tested for photochromic response on an optical bench. Prior to testing on the optical bench, the photochromic test squares were exposed to 365 nanometer ultraviolet light for about 15 minutes to activate the photochromic compounds and then placed in a 76° C. oven for about 15 minutes to bleach or inactivate the photochromic compounds. The test squares were then cooled to room temperature, exposed to fluorescent room lighting for at least 2 hours and then kept covered for at least 2 hours prior to testing on an optical bench maintained at 72° F. (22.2° C.). The bench was fitted with a 150 watt Xenon arc lamp, a remote controlled shutter, a copper sulfate bath acting as a heat sink for the arc lamp, a Schott WG-320 nm cut-off filter which removes short wavelength radiation; neutral density filter(s) and a sample holder in which the square to be tested was inserted. The power output of the optical bench, i.e., the dosage of light that the sample lens would be exposed to, was calibrated with a photochromic test square used as a reference standard. […] The UV-A detector was placed into the sample holder and the light output was measured. Adjustments to the power output were made by increasing or decreasing the lamp wattage or by adding or removing neutral density filters in the light path.
A monitoring, collimated beam of light from a tungsten lamp was passed through the square at a small angle (approximately […]) normal to the square. After passing through the square, the light from the tungsten lamp was directed to a detector through Spectral Energy Corp. GM-200 monochromator set at the previously determined visible lambda max of the photochromic compound being measured. The output signals from the detector were processed by a radiometer.
Change in optical density (ΔOD) was determined by inserting a test square in the bleached state into the sample holder, adjusting the transmittance scale to 100%, opening the shutter from the Xenon lamp to provide ultraviolet radiation to change the test square from the bleached state to an activated (i.e., darkened) state, measuring the transmittance in the activated state, and calculating the change in optical density according to the formula: ΔOD=log(100/% Ta), where % Ta is the percent transmittance in the activated state and the logarithm is to the base 10.
The Δ OD/min, which represents the sensitivity of the photochromic compound's response to UV light, was measured over the first five (5) seconds of UV exposure, then expressed on a per minute basis. The saturation optical density (Δ OD@ Saturation) was taken under identical conditions as the Δ OD/min, except UV exposure was continued for 15 minutes. […]

SMILES	lambda max (Vis) [1] [nanometers]	ΔOD @ Saturation [2]	Sensitivity ΔOD/min [2]	Bleach Rate T 1/2 ([2]; time for absorbance of activated form to reach one half the highest absorbance at room temperature (72° F.) after removal of activating light) [s]
O=c1oc2ccccc2c2c1c1c(c3ccccc32)OC(c2ccccc2)(c2ccccc2)C=C1 [Compound 10, 6,6-diphenyl-9-oxo-6,9-dihydro[1]benzopyrano[3',4':3,4]naphtho(1,2-b)pyran]	484	0.26	0.69 ΔOD/min	19
O=c1oc2c3ccc4c(c3ccc2c2ccccc12)C=CC(c1ccccc1)(c1ccccc1)O4 [Compound 11, 3,3-diphenyl-8-oxo-3,8-dihydro[2]benzopyrano[3',4':5,6]naphtho(2,1-b)pyran]	466	0.02	0.12 ΔOD/min	
